In patent US12129312B2, “Peptide compound, application thereof and composition containing same” (priority 2017, dated 2024):
Like-named read-outs stand apart in the source and are kept apart here. Square brackets hold non-standard residues; d marks the D form. Peptide text beside a SMILES is read from it. * marks the point of attachment. PEG8 = NCCOCCOCCOCCOCCOCCOCCOCCOCCC(=O)O; Pro(4,4-F2) = O=C(O)[C@@H]1CC(F)(F)CN1; 2Nal = N[C@@H](Cc1ccc2ccccc2c1)C(=O)O; dNMeY = CN[C@H](Cc1ccc(O)cc1)C(=O)O; Palmitoyl = CCCCCCCCCCCCCCCC(=O)*; Tic = O=C(O)[C@@H]1Cc2ccccc2CN1; NMeL = CN[C@@H](CC(C)C)C(=O)O; NMeS = CN[C@@H](CO)C(=O)O; hSer = N[C@@H](CCO)C(=O)O; Thz = O=C(O)[C@@H]1CSCN1; βAla = NCCC(=O)O

How the values were obtained:
[1] = Plasma stability, mouse plasma; assay type: in vitro ADME; conditions: 37° C., 0-4 hours, LC-MS/MS, "Very long" = no significant degradation found in the test (4 hours); for half-life at 500 ng/mL: read-out: Mouse plasma (T1/2 (h)) (converted); for Mouse plasma (T1/2 (h)): 500 ng/mL
Description: (§1) 1. Preparation of 50 mM Phosphate Buffer (50 mM Sodium Phosphate and 70 mM NaCl):
(§2) 5.750 g of Na2HPO4, 1.141 g of NaH2PO4 and 4.095 g of NaCl (Shanghai Titan) were weighed and dissolved in 1000 mL of ultrapure water and the pH was adjusted to 7.4. The prepared phosphate buffer was stored in the refrigerator at 4° C., valid for one week.
(§3) 2. Preparation of Compound Stock Solution:
(§4) 1) 5 mg/mL test compound: 5 mg of compound was weighed and dissolved in 1 mL of DMSO.
(§5) 2) 20 mM control: 2.728 mg of nococaine was dissolved in 0.5 mL of DMSO. 3.878 mg of fenfluramide was dissolved in 0.5 mL of DMSO (Amresco).
(§6) 3. Preparation of Experimental Plasma:
(§7) The frozen plasma (human: Shanghai ChemPartner, Rat, Mouse: Shanghai Xipuer-Beikai, Dog, Monkey: Suzhou Xishan Zhongke) was taken out from the −80° C. refrigerator, immediately placed in a 37° C. water bath, and thawn with gentle shaking. The thawed plasma was poured into a centrifuge tube, and centrifuged at 3000 rpm for 8 minutes. The supernatant was collected for the experiment. The pH of the plasma was measured with a pH meter (METTLER TOLEDO), and only the plasma with a pH between 7.4 and 8 was used for the experiment. The plasma was placed on an ice bath for later use.
(§8) 4. Preparation of the Dosing Solution:
(§9) 1) 125 μg/mL test compound solution: 5 μL of 5 mg/mL test compound (see step 2) was added to 195 μL DMSO; 500 μM control solution: 20 mM control stock solution (see step 2) was added to 195 μL DMSO.
(§10) 2) 0.5% BSA phosphate buffer solution: 0.05 g of BSA was added to 10 mL of phosphate buffer (see step 1).
(§11) 3) 5 μg/mL test compound dosing solution: 40 μL of 125 μg/mL test compound solution was added to 960 μL of 0.5% BSA phosphate buffer solution, shaken and mixed evenly, and the dosing solution was placed in a 37° C. water bath and preheated for 5 minutes.
(§12) 20 μM control dosing solution: 40 μL of 500 μM control solution was added to 960 μL of 0.5% BSA phosphate buffer solution, shaken and mixed evenly, and the dosing solution was placed in a 37° C. water bath and preheated for 5 minutes.
(§13) 5. 10 μL of 5 μg/mL test compound and 20 μM control solution were added to the wells of the 96-well plate set at different time points (0 minute, 1 hour, 2 hours and 4 hours). The number of duplicate samples was 3.
(§14) 6. 500 μL of ACN (IS) containing 5% FA was added to the wells set at 0 minute. 90 μL of plasma was then added thereto, mixed evenly, sealed with the film and stored at 4° C. (the number of duplicates was 3).
(§15) 7. 90 μL of plasma was added to the wells set at 1 hour, 2 hours and 4 hours (the number of replicates was 3), followed by timing (the final concentration of the test compound was 500 ng/mL, and that of the control was 2 μM).
(§16) 9. All samples (0 minutes, 1 hour, 2 hours, and 4 hours) at different time points on the 96-well plate were placed on a shaker (IKA, MTS 2/4) and shaken at 600 rpm for 60 minutes. The samples were then centrifuged for 15 minutes on a centrifuge machine (Thermo Multifuge×3R) at 5594×g.
(§17) 10. 150 μL of the supernatant was taken out from the centrifuged sample and sent to LC-MS/MS for analysis (conventional peptide LC-MS/MS analysis).

[2] = Plasma stability, human plasma; assay type: in vitro ADME; conditions: 37° C., time points 0 minute, 1, 2 and 4 hours, LC-MS/MS, read-out: Human plasma (T1/2 (h)) (converted)
Description: as §1, §2, §3, §4, §5, §6, §7, §8, §9, §10, §11, §12, §13, §14, §15, §16, §17

[3] = molecular target: T1, human Chemokine like receptor 1 (Homo sapiens, UniProt Q99788); test: Activation of Tango CMKLR1-bla U2OS cells (beta-lactamase FRET reporter); assay type: cell-based
T1 construct: host or cells: U2OS (Tango CMKLR1-bla U2OS)
T1 sequence (Q99788 1-373): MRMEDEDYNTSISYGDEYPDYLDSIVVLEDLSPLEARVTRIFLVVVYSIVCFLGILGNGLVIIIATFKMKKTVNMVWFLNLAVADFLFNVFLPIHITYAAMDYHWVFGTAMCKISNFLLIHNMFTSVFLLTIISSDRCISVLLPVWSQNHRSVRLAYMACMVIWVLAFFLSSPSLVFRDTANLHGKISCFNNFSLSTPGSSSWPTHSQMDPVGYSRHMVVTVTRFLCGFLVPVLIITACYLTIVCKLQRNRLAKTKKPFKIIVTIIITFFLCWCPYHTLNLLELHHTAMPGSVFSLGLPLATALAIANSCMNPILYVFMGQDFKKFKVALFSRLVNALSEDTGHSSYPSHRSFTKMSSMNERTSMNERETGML
How it was run: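 Agonist mode in Tango CMKLR1-bla U2OS cells, 10000 cells/well seeded overnight, then 10-point 3-fold compound dilutions from 10 mM DMSO stock applied for 4 h at 37 °C, 5% CO2. Beta-lactamase reporter read with CCF4-AM FRET substrate; peptide (D-Tyr)-Phe-Leu-Pro-(D-Ser)-Gln-Phe-(D-Ala)-Tic-Ser served as positive control.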

[4] = determination by the method of Effect Embodiment 1, read-out: EC50

| SMILES | half-life at 500 ng/mL [2] [h] | EC50 [3, 4] [nM] | EC50 [3] [nM] | other results |
| --- | --- | --- | --- | --- |
| CCCCCCCCCCCCCCCC(=O)NCCOCCOCCOCCOCCOCCOCCOCCOCCC(=O)NCC(=O)NCC(=O)N[C@H](Cc1ccc(O)cc1)C(=O)N[C@@H](Cc1ccccc1)C(=O)N(C)[C@@H](CC(C)C)C(=O)N1CCC[C@H]1C(=O)N[C@H](CO)C(=O)N[C@@H](CCC(N)=O)C(=O)N[C@@H](Cc1ccccc1)C(=O)N[C@H](C)C(=O)N1Cc2ccccc2C[C@H]1C(=O)N[C@@H](CO)C(=O)O [YW-133, Palm-PEG8-Gly-Gly-(D-Tyr)-Phe-(NMe-Leu)-Pro-(D-Ser)-Gln-Phe-(D-Ala)-Tic-Ser-OH] ({Palmitoyl-PEG8}-GG[dY]F[NMeL]P[dS]QF[dA][Tic]S-OH) | 13.7 | 0.7 |  | half-life at 500 ng/mL [1]: 67.1 h |
| CCCCCCCCCCCCCCCC(=O)NCCOCCOCCOCCOCCOCCOCCOCCOCCC(=O)NCCC(=O)NCCC(=O)N[C@H](Cc1ccc(O)cc1)C(=O)N[C@@H](Cc1ccccc1)C(=O)N(C)[C@@H](CC(C)C)C(=O)N1CCC[C@H]1C(=O)N[C@H](CO)C(=O)N[C@@H](CCC(N)=O)C(=O)N[C@@H](Cc1ccccc1)C(=O)N[C@H](C)C(=O)N1Cc2ccccc2C[C@H]1C(=O)N[C@@H](CO)C(=O)O [YW-134, Palm-PEG8-βAla-βAla-(D-Tyr)-Phe-(NMe-Leu)-Pro-(D-Ser)-Gln-Phe-(D-Ala)-Tic-Ser-OH] ({Palmitoyl-PEG8-βAla-βAla}-[dY]F[NMeL]P[dS]QF[dA][Tic]S-OH) | 14 | 0.7 |  | half-life at 500 ng/mL [1]: 11.4 h |
| CC(C)C[C@@H](C(=O)N1CSC[C@H]1C(=O)N[C@H](CO)C(=O)N[C@@H](CCC(N)=O)C(=O)N[C@@H](Cc1ccc2ccccc2c1)C(=O)N[C@H](C)C(=O)N1Cc2ccccc2C[C@H]1C(=O)N[C@@H](CO)C(=O)O)N(C)C(=O)[C@H](Cc1ccccc1)NC(=O)[C@H](N)Cc1ccc(O)cc1 [YW-122, (D-Tyr)-Phe-(NMe-Leu)-Thz-(D-Ser)-Gln-2Nal-(D-Ala)-Tic-Ser-OH] (H-[dY]F[NMeL][Thz][dS]Q[2Nal][dA][Tic]S-OH) | 79.6 |  | 0.6 | Mouse plasma (T1/2 (h)) [1]: Very long |
| CC(C)C[C@@H](C(=O)N1CCC[C@H]1C(=O)N[C@H](CO)C(=O)N[C@@H](CCC(N)=O)C(=O)N[C@@H](Cc1ccc2ccccc2c1)C(=O)N[C@H](C)C(=O)N1Cc2ccccc2C[C@H]1C(=O)N[C@@H](CO)C(=O)O)N(C)C(=O)[C@H](Cc1ccccc1)NC(=O)[C@H](N)Cc1ccc(O)cc1 [YW-164, (D-Tyr)-Phe-(NMe-Leu)-Pro-(D-Ser)-Gln-2Nal-(D-Ala)-Tic-Ser-OH] (H-[dY]F[NMeL]P[dS]Q[2Nal][dA][Tic]S-OH) |  |  | 1.1 |  |
| CN[C@H](Cc1ccc(O)cc1)C(=O)N[C@@H](Cc1ccccc1)C(=O)N(C)[C@@H](CC(C)C)C(=O)N1CSC[C@H]1C(=O)N[C@H](CO)C(=O)N[C@@H](CCC(N)=O)C(=O)N[C@@H](Cc1ccc2ccccc2c1)C(=O)N[C@H](C)C(=O)N1Cc2ccccc2C[C@H]1C(=O)N(C)[C@@H](CO)C(=O)O [YW-125, (D-NMe-Tyr)-Phe-(NMe-Leu)-Thz-(D-Ser)-Gln-2Nal-(D-Ala)-Tic-(NMe-Ser)-OH] (H-[dNMeY]F[NMeL][Thz][dS]Q[2Nal][dA][Tic][NMeS]-OH; N-terminus assumed) |  | 0.6 |  | Mouse plasma (T1/2 (h)) [1]: Very long |
| CC(C)C[C@H](NC(=O)[C@H](Cc1ccccc1)NC(=O)[C@H](N)Cc1ccccc1)C(=O)N1CCC[C@H]1C(=O)N[C@H](CO)C(=O)N[C@@H](CCC(N)=O)C(=O)N[C@@H](Cc1ccccc1)C(=O)N[C@H](C)C(=O)N1Cc2ccccc2C[C@H]1C(=O)N[C@@H](CO)C(=O)O [YW-97, (D-Phe)-Phe-Leu-Pro-(D-Ser)-Gln-Phe-(D-Ala)-Tic-Ser-OH] (H-[dF]FLP[dS]QF[dA][Tic]S-OH) |  | 50 |  |  |
| CC(C)C[C@@H](C(=O)N1CCC[C@H]1C(=O)N[C@H](CO)C(=O)N[C@@H](CCC(N)=O)C(=O)N[C@@H](Cc1ccccc1)C(=O)N[C@H](C)C(=O)N1Cc2ccccc2C[C@H]1C(=O)N[C@@H](CCO)C(=O)O)N(C)C(=O)[C@H](Cc1ccccc1)NC(=O)[C@H](N)Cc1ccc(O)cc1 [YW-171, (D-Tyr)-Phe-(NMe-Leu)-Pro-(D-Ser)-Gln-Phe-(D-Ala)-Tic-HoSer-OH] (H-[dY]F[NMeL]P[dS]QF[dA][Tic][hSer]-OH) |  | 29 |  |  |
| CCCCCCCCCCCCCCCC(=O)NCCOCCOCCOCCOCCOCCOCCOCCOCCC(=O)NCC(=O)NCC(=O)N(C)[C@H](Cc1ccc(O)cc1)C(=O)N[C@@H](Cc1ccccc1)C(=O)N(C)[C@@H](CC(C)C)C(=O)N1CCC[C@H]1C(=O)N[C@H](CO)C(=O)N[C@@H](CCC(N)=O)C(=O)N[C@@H](Cc1ccc2ccccc2c1)C(=O)N[C@H](C)C(=O)N1Cc2ccccc2C[C@H]1C(=O)N(C)[C@@H](CO)C(=O)O [YW-178, Palm-PEG8-Gly-Gly-(D-NMe-Tyr)-Phe-(NMe-Leu)-Pro-(D-Ser)-Gln-2Nal-(D-Ala)-Tic-(NMe-Ser)] ({Palmitoyl-PEG8}-GG[dNMeY]F[NMeL]P[dS]Q[2Nal][dA][Tic][NMeS]-OH) |  | 2.1 |  |  |
| CC(C)C[C@@H](C(=O)N1CC(F)(F)C[C@H]1C(=O)N[C@H](CO)C(=O)N[C@@H](CCC(N)=O)C(=O)N[C@@H](Cc1ccc2ccccc2c1)C(=O)N[C@H](C)C(=O)N1Cc2ccccc2C[C@H]1C(=O)N(C)[C@@H](CO)C(=O)O)N(C)C(=O)[C@H](Cc1ccccc1)NC(=O)[C@H](N)Cc1ccc(O)cc1 [YW-224, (D-Tyr)-Phe-(NMe-Leu)-Pro(diF)-(D-Ser)-Gln-2Nal-(D-Ala)-Tic-NMeSer] (H-[dY]F[NMeL][Pro(4,4-F2)][dS]Q[2Nal][dA][Tic][NMeS]-OH) |  |  | 1.3 |  |
| CN[C@H](Cc1ccc(O)cc1)C(=O)N[C@@H](Cc1ccccc1)C(=O)N[C@@H](CC(C)C)C(=O)N1CCC[C@H]1C(=O)N[C@H](CO)C(=O)N[C@@H](CCC(N)=O)C(=O)N[C@@H](Cc1ccccc1)C(=O)N[C@H](C)C(=O)N1Cc2ccccc2C[C@H]1C(=O)N[C@@H](CO)C(=O)O [YW-103, (D-NMe-Tyr)-Phe-Leu-Pro-(D-Ser)-Gln-Phe-(D-Ala)-Tic-Ser-OH] (H-[dNMeY]FLP[dS]QF[dA][Tic]S-OH; N-terminus assumed) |  | 9.4 |  |  |
